Common to all, as to assay: NCI-60 cell line screen, 48 h
Assay [1] concerns 786-0.
The test system of assay [2] is BT-549.
For assay [3], the system named is CAKI-1.
For assay [4], the system named is CCRF-CEM.
Assay [5] deals with HCC 2998.
Assay [6] concerns HCT-15.
Assay [7] deals with Hs-578T.
Assay [8] relates to MDA-MB-231.
Assay [9] concerns NCI-H226.
In assay [10] the test system is NCI-H460.
For assay [11], the system named is NCI-H522.
The test system of assay [12] is NCI/ADR-RES.
Assay [13] deals with OVCAR-3.
Assay [14] has as its system OVCAR-5.
Assay [15] has as its system OVCAR-8.
In assay [16] the test system is SK-MEL-28.
For assay [17], the system named is SNB-75.
Assay [18] relates to TK-10.
Assay [19] deals with U-251.
Assay [20] relates to SR.

The text below walks through data of ChEMBL document CHEMBL1201862, “PubChem BioAssay data set” (2004).

Structures are written as SMILES.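 Five concentrations, 48 hours, 96-well plates. GI50 marks 50% less growth.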 The source made the active and inactive calls. No stated cut-off is given here; in the data, active = GI50 up to about 1.1 µM and inactive = higher.

Regarding `c1cc2c(cc1NC1=NCCO1)CCCC2`, the GI50 in assay [1] is 5.07 µM (inactive); in [2], 13.7 µM (inactive); in assay [3] it was 18.6 µM (inactive); in [4], 2.72 µM (inactive); in assay [5] it was 2.55 µM (inactive); in [6], 3.45 µM. For the same compound, the GI50 in assay [7] is 4.6 µM (inactive); in [8] it was 2.16 µM (inactive); in assay [9] it was 3.37 µM (inactive); in assay [10] it was 3.3 µM (inactive); in assay [11], 3.52 µM (inactive); in [12], 2.18 µM (inactive). In addition, the GI50 in assay [13] was 3.51 µM (inactive); in assay [14], 6.07 µM (inactive); in assay [15] it was 3.66 µM (inactive); in assay [16] it was 5.19 µM (inactive); in assay [17] it was 2.08 µM (inactive); in assay [18], 10.6 µM (inactive). In addition, the GI50 in assay [19] is 4.16 µM (inactive).
For `CC1(C)CC2=NO[Se]3=C2C(=NO3)C1`, the GI50 was 1.94 µM (inactive) in [1]; 1.47 µM (inactive) in assay [2]; 3.65 µM (inactive) in [3]; 3.06 µM (inactive) in [4]; 5.19 µM (inactive) in [5]; 0.811 µM in assay [6]. For the same compound, the GI50 in assay [7] was 4.35 µM (inactive); in [8], 4.19 µM (inactive); in assay [9], 3.76 µM (inactive); in [10], 1.34 µM (inactive); in assay [11], 1.9 µM (inactive); in [13], 1.68 µM (inactive). Moreover, the GI50 was 5.11 µM (inactive) in [14]; 2.38 µM (inactive) in assay [15]; 4.54 µM (inactive) in assay [16]; 2.68 µM (inactive) in assay [17]; 4.29 µM (inactive) in [18]; 3.69 µM (inactive) in assay [19].
Take `O=C(Nn1c(-c2ccccc2)nc2ccccc2c1=O)c1cccc([N+](=O)[O-])c1`: the GI50 in [1] was > 100 µM (inactive); in assay [2], 32.3 µM (inactive); in assay [4], 52.5 µM (inactive); in assay [5], > 100 µM (inactive); in [6], 55.7 µM; in [7], 95.3 µM (inactive). The GI50 in assay [9] is 52.8 µM (inactive); in assay [10] it was 53.8 µM (inactive); in [11], 67 µM (inactive); in [13] it was > 100 µM (inactive); in assay [14], > 100 µM (inactive); in assay [15] it was > 100 µM (inactive). For the same compound, the GI50 is 79.6 µM (inactive) in assay [16]; > 100 µM (inactive) in assay [17]; 47.2 µM (inactive) in assay [20]; 91.8 µM (inactive) in assay [18]; 62.4 µM (inactive) in [19].
`O=C(O)c1nc2ccccc2nc1Nc1ccc(Cl)c(Cl)c1`: the GI50 in assay [1] was 20.2 µM (inactive); in assay [2], 16.1 µM (inactive); in [3] it was 33 µM (inactive); in assay [4], 17.8 µM (inactive); in assay [5], 18.2 µM (inactive); in [6] it was 13.1 µM. For the same compound, the GI50 in assay [8] is 31.3 µM (inactive); in assay [9], 43.4 µM (inactive); in assay [10] it was 13.6 µM (inactive); in [11], 17 µM (inactive); in assay [12], 27.9 µM (inactive); in assay [13], 11.5 µM (inactive). In addition, the GI50 in assay [14] is 39.6 µM (inactive); in assay [15], 41.1 µM (inactive); in assay [16] it was 13 µM (inactive); in assay [17], 56.5 µM (inactive); in [20] it was 47.9 µM (inactive); in assay [18], 42.9 µM (inactive). In assay [19], the GI50 is 22.1 µM (inactive).
Consider `O=C(Cn1c2c(c3ccccc31)CCCC2)N1CCCCC1`, for which the GI50 is > 100 µM (inactive) in assay [1]; > 100 µM (inactive) in assay [2]; > 100 µM (inactive) in assay [3]; > 100 µM (inactive) in assay [5]; over 100 µM in assay [6]; > 100 µM (inactive) in assay [7]. In addition, the GI50 in assay [10], in [12], in assay [13], in assay [14], in [15] and in [16] was > 100 µM (inactive) throughout. Also, the GI50 in assay [20] and in assay [18] was > 100 µM (inactive) in each case.
`CC(C)(C)OC(=O)N1Cc2cc(O)ccc2C[C@H]1C(=O)O`: the GI50 is > 100 µM (inactive) in [1]; > 100 µM (inactive) in assay [3]; > 100 µM (inactive) in assay [4]; > 100 µM (inactive) in assay [5]; over 100 µM in assay [6]; > 100 µM (inactive) in [7]. Also, the GI50 in assay [8], in [9], in assay [10], in [11], in [12] and in assay [13] was > 100 µM (inactive) each time. Further, the GI50 in assay [14], in assay [15], in assay [16], in assay [17], in assay [20] and in [18] was > 100 µM (inactive) in each case. Besides, the GI50 in assay [19] is > 100 µM (inactive).
As to `C#CCOC(=O)C(N)C(C)O` (configuration not stated), the GI50 in assay [1], in assay [2], in [3], in assay [4], in assay [7] and in assay [8] was > 100 µM (inactive) each time. Besides, the GI50 in assay [9], in assay [11], in assay [12], in assay [13], in assay [14] and in [15] was > 100 µM (inactive) throughout. The GI50 in assay [16], in assay [17], in assay [18] and in assay [19] was > 100 µM (inactive) each time.
`COC(=O)C12C(=O)CC3CCC1C32C(=O)OC` (configuration not stated): the GI50 is > 100 µM (inactive) in assay [1]; > 100 µM (inactive) in assay [2]; > 100 µM (inactive) in assay [3]; > 100 µM (inactive) in [4]; > 100 µM (inactive) in assay [5]; over 100 µM in [6]. In addition, the GI50 in [8], in assay [9], in assay [10], in assay [11], in assay [12] and in assay [13] was > 100 µM (inactive) in each case. For the same compound, the GI50 in assay [14], in [15], in assay [16], in [17], in assay [20] and in assay [18] was > 100 µM (inactive) in each case. The GI50 in assay [19] is > 100 µM (inactive).
In the case of `COc1ccc2c(c1)C1=NCCN(CCO)c3ccc([N+](=O)[O-])c(c31)N2`, the GI50 in assay [1] was 0.22 µM (active); in [3], 0.366 µM (active); in assay [4], 0.18 µM (active); in assay [5], 0.574 µM (active); in assay [6], 0.75 µM; in [7], 0.693 µM (active). Also, the GI50 was 0.468 µM (active) in assay [8]; 0.331 µM (active) in assay [9]; 0.274 µM (active) in assay [10]; 0.264 µM (active) in assay [11]; 1.23 µM (inactive) in assay [12]; 0.785 µM (active) in assay [13]. The GI50 in assay [14] is 0.728 µM (active); in assay [15], 0.201 µM (active); in assay [16], 0.624 µM (active); in assay [17], 0.578 µM (active); in assay [20], 0.0368 µM (active); in assay [18], 0.63 µM (active). The GI50 in assay [19] is 0.506 µM (active).
As to `COC(=O)CCC(=O)c1ccc2c(c1)CC1(C2)Cc2ccc3c(c2C1)CCCC3=O` (configuration not stated), the GI50 in [1] was 29.9 µM (inactive); in [3], 16.4 µM (inactive); in assay [4], 1.78 µM (inactive); in [5], 38.3 µM (inactive); in assay [6] it was 8.15 µM; in assay [7], 56.1 µM (inactive). Further, the GI50 in assay [8] is > 73.5 µM (inactive); in [9], 27.8 µM (inactive); in [10], 25.2 µM (inactive); in assay [11] it was 21.4 µM (inactive); in [12], 29 µM (inactive); in [13], 10.1 µM (inactive). Besides, the GI50 in [14] is 40.1 µM (inactive); in [15] it was 26.7 µM (inactive); in assay [16], 25.5 µM (inactive); in assay [17] it was 86.5 µM (inactive); in assay [20], 0.297 µM (active); in [18], 41 µM (inactive). Further, in assay [19], the GI50 is 25 µM (inactive).
For the compound `O=C(c1cccs1)N(C(=O)N1CCCCC1)c1ccccc1`, the GI50 in assay [1] is > 100 µM (inactive); in [2] it was > 100 µM (inactive); in assay [3] it was > 100 µM (inactive); in assay [4], > 100 µM (inactive); in assay [6] it was over 100 µM; in [7], 84.7 µM (inactive). Besides, the GI50 in assay [8], in assay [9], in assay [12], in assay [13], in [15] and in assay [16] was > 100 µM (inactive) each time. Also, the GI50 is 3.28 µM (inactive) in assay [17], > 100 µM (inactive) in [18] and > 100 µM (inactive) in [19].
For the compound `COc1cc2c(cc1OC)C(=O)/C(=C/c1cc(Cl)cc(Cl)c1)C2`, the GI50 in assay [1] is 4.73 µM (inactive); in assay [2], 7.26 µM (inactive); in assay [3], 4.33 µM (inactive); in assay [4], 2.07 µM (inactive); in assay [5], 0.351 µM (active); in [6], 3.03 µM. In addition, the GI50 in assay [7] is 11.3 µM (inactive); in [8], 11.3 µM (inactive); in [9] it was 3.87 µM (inactive); in assay [10], 4.73 µM (inactive); in assay [11], 2.04 µM (inactive); in assay [12], 1.76 µM (inactive). The GI50 in assay [13] is 3.33 µM (inactive); in assay [14], > 34.1 µM (inactive); in assay [16], 61.7 µM (inactive); in [17] it was 1.86 µM (inactive); in [18], 55.3 µM (inactive); in assay [19], 5.32 µM (inactive).
